Patent publication US9365556B2, “3,5-diaminopyrazole kinase inhibitors” (Axikin Pharmaceuticals, Inc., priority 2012, dated 2016)

Target: T1, kinase domain protein of RC kinase (Homo sapiens, UniProt Q56UN5)
T1 sequence (Q56UN5 1061-1324 limits assumed): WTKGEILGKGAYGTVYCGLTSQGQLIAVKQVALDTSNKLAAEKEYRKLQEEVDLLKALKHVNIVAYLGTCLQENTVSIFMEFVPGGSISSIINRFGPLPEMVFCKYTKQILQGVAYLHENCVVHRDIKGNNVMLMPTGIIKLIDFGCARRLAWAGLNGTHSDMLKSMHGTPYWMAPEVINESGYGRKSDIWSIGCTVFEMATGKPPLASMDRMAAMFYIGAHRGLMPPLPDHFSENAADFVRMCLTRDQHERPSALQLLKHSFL
Test: Enzymatic assay for kinase inhibitory activity (Crebtide substrate, LANCE read-out)
Type: biochemical
Conditions: compound at 1 μM
Procedure: Solutions of a test compound, Crebtide (a substrate), a kinase, and ATP were prepared using 1×MAPK Buffer (50 mM HEPES, 1 mM EGTA, […], 10 mM MgCl2, 2 mM DTT, and 0.01% Tween 20).
To each well, the test compound (1 μL) was first added (in duplicate) to reach a final concentration of 1 μM or 1×IC50 of the compound. The kinase (5 μl) was then added to each well to reach a final concentration of […] for the kinase domain or […] for the full-length domain. Each plate included a positive and negative controls in duplicate wells. Crebtide (2.5 μL) was then added to each well in duplicate to reach a final concentration of 50 nM. If the full-length kinase was used, the plates were incubated for 45 min at room temperature before proceeding further. ATP (2.5 μL) was added to each well to reach a final concentration of 1 μM for the kinase domain and 3 μM for the full-length.
After the addition of ATP, the plates were incubated for 45 min at room temperature. During the incubation, an EDTA solution (40 mM) and anti-Crebtide ([…]) were prepared. Additionally, a detection buffer stock solution was diluted ten fold before use.
After the incubation, the anti-Crebtide (5 μL) and EDTA (5 μL) were added to each well to reach their final concentrations of […] and 10 mM, respectively. The plates were allowed to develop at room temperature for 45 min. The plates were then read at 665 nm and 615 nm using Perkin Elmer Lance machine.
The biological results of inhibition of the kinase domain protein of RC kinase are summarized in Tables 2 and 3, wherein A represents at least 50% inhibition of the RC kinase activity at 1 μM; B represents no greater than 50% but at least 20% inhibition of the RC kinase activity at 1 μM; C represents no greater than 20% but at least 5% inhibition of the RC kinase activity at 1 μM; and D represents no greater than 5% inhibition of the RC kinase activity at 1 μM.

| inhibition at 1 µM [%] | SMILES | Activity (inhibition of the RC kinase activity) | also measured |
| --- | --- | --- | --- |
| 20 to 50 | N#Cc1c(Nc2cccc(Cl)c2)n[nH]c1/N=C/c1ccc(-c2ccccn2)s1 [Compound A2] |  |  |
|  | COc1ccc(/C=N/c2[nH]nc(Nc3ccccc3)c2C#N)cc1 [Compound A6] | B (no greater than 50% but at least 20% inhibition of the RC kinase activity at 1 μM) |  |
|  | COc1cc(/C=N/c2[nH]nc(Nc3cccc(Cl)c3)c2C#N)ccc1O [Compound A17] | B (no greater than 50% but at least 20% inhibition of the RC kinase activity at 1 μM) |  |
|  | N#Cc1c(Nc2ccccc2)n[nH]c1/N=C/c1ccc(C(F)(F)F)cc1 [Compound A18] | C (no greater than 20% but at least 5% inhibition of the RC kinase activity at 1 μM) |  |
|  | COc1cccc(/C=N/c2[nH]nc(Nc3cccc(Cl)c3)c2C#N)c1 [Compound A24] | D (no greater than 5% inhibition of the RC kinase activity at 1 μM) |  |
|  | N#Cc1c(Nc2cccc(Cl)c2)n[nH]c1/N=C/c1ccc[nH]1 [Compound A27] | C (no greater than 20% but at least 5% inhibition of the RC kinase activity at 1 μM) |  |
| 5 to 20 | N#Cc1c(Nc2ccccc2)n[nH]c1/N=C/c1ccc[nH]1 [Compound A28] |  |  |
|  | N#Cc1c(Nc2ccc(Cl)cc2)n[nH]c1/N=C/c1ccc[nH]1 [Compound A39] | D (no greater than 5% inhibition of the RC kinase activity at 1 μM) |  |
|  | COc1ccc(Nc2n[nH]c(/N=C/c3ccc(Cl)cc3)c2C#N)cc1 [Compound A44] | D (no greater than 5% inhibition of the RC kinase activity at 1 μM) |  |
|  | COc1ccc(Nc2n[nH]c(/N=C/c3ccccc3)c2C#N)cc1 [Compound A45] | D (no greater than 5% inhibition of the RC kinase activity at 1 μM) |  |
| ≤ 5 | N#Cc1c(NC2CCCCC2)n[nH]c1/N=C/c1ccc(O)cc1 [Compound A49, 3-(cyclohexylamino)-5-((4-hydroxybenzylidene)amino)-1H-pyrazole-4-carbonitrile] |  |  |
|  | COc1ccc(/C=N/c2[nH]nc(NC3CCCCC3)c2C#N)cc1 [Compound A50] | D (no greater than 5% inhibition of the RC kinase activity at 1 μM) |  |
|  | N#Cc1c(NC2CCCCC2)n[nH]c1/N=C/c1ccccc1 [Compound A51] | D (no greater than 5% inhibition of the RC kinase activity at 1 μM) |  |
| 5 to 20 | Cc1cc(C)cc(Nc2n[nH]c(/N=C/c3ccc(O)cc3)c2C#N)c1 [Compound A55] |  |  |
| 5 to 20 | N#Cc1c(Nc2cc(Cl)cc(Cl)c2)n[nH]c1/N=C/c1ccc(O)cc1 [Compound A56] |  |  |
| 5 to 20 | CC(C)(C)c1ccc(Nc2[nH]nc(N=Cc3ccc(O)cc3)c2C#N)cc1 [Compound A57, 5-((4-(tert-butyl)phenyl)amino)-3-((4-hydroxybenzylidene)amino)-1H-pyrazole-4-carbonitrile] |  |  |
| ≤ 5 | N#Cc1c(Nc2ccc(Cl)c(Cl)c2)n[nH]c1/N=C/c1ccc(O)cc1O [Compound A59] |  |  |
|  | Cn1nc(C(F)(F)F)c(/C=N/c2[nH]nc(Nc3cccc(Cl)c3)c2C#N)c1Cl [Compound A69] | C (no greater than 20% but at least 5% inhibition of the RC kinase activity at 1 μM) |  |
|  | N#Cc1c(Nc2cccc(Cl)c2)n[nH]c1/N=C/c1nc(-c2ccccc2)[nH]c1Cl [Compound A72] | B (no greater than 50% but at least 20% inhibition of the RC kinase activity at 1 μM) |  |
|  | N#Cc1c(Nc2cccc(Cl)c2)n[nH]c1/N=C/c1ccc(-c2ccc(Cl)cc2)o1 [Compound A73] | C (no greater than 20% but at least 5% inhibition of the RC kinase activity at 1 μM) |  |
|  | CN1CCN(c2ccc(/C=N/c3[nH]nc(Nc4cccc(Cl)c4)c3C#N)cc2)CC1 [Compound A74] | C (no greater than 20% but at least 5% inhibition of the RC kinase activity at 1 μM) |  |
|  | N#Cc1c(Nc2cccc(Cl)c2)n[nH]c1/N=C/c1ccc(Oc2ncccn2)cc1 [Compound A77] |  | Activity (inhibition of the RC kinase activity) (1 µM): D (no greater than 5% inhibition of the RC kinase activity at 1 μM) |
|  | Cn1c(Cl)c(/C=N/c2[nH]nc(Nc3cccc(Cl)c3)c2C#N)c2ccccc21 [Compound A78] | C (no greater than 20% but at least 5% inhibition of the RC kinase activity at 1 μM) |  |

| inhibition at 1 µM [%] | SMILES | Activity (inhibition of the RC kinase activity) | also measured |
| --- | --- | --- | --- |
|  | COc1cc(/C=N/c2[nH]nc(Nc3cccc(Cl)c3)c2C#N)cc(O)c1OC [Compound A85] | C (no greater than 20% but at least 5% inhibition of the RC kinase activity at 1 μM) |  |
|  | COc1ccc(/C=N/c2[nH]nc(Nc3cccc(Cl)c3)c2C#N)c(C)c1C [Compound A89] | C (no greater than 20% but at least 5% inhibition of the RC kinase activity at 1 μM) |  |
|  | N#Cc1c(Nc2cccc(Cl)c2)n[nH]c1/N=C/c1c(O)cccc1Cl [Compound A92] | D (no greater than 5% inhibition of the RC kinase activity at 1 μM) |  |
|  | Cc1ncsc1/C=N/c1[nH]nc(Nc2cccc(Cl)c2)c1C#N [Compound A104] | D (no greater than 5% inhibition of the RC kinase activity at 1 μM) |  |
|  | N#Cc1c(Nc2cccc(Cl)c2)n[nH]c1/N=C/c1cccs1 [Compound A105] | D (no greater than 5% inhibition of the RC kinase activity at 1 μM) |  |
|  | NC(=O)c1c(Nc2ccccc2)n[nH]c1/N=C/c1ccc(O)cc1 [Compound B10] | A (at least 50% inhibition of the RC kinase activity at 1 μM) |  |
|  | NC(=O)c1c(Nc2ccccc2)n[nH]c1/N=C/c1ccccc1 [Compound B11] | A (at least 50% inhibition of the RC kinase activity at 1 μM) |  |
|  | NC(=O)c1c(Nc2cccc(Cl)c2)n[nH]c1/N=C/c1ccc(C(F)(F)F)cc1 [Compound B16] | D (no greater than 5% inhibition of the RC kinase activity at 1 μM) |  |
|  | NC(=O)c1c(Nc2cccc(Cl)c2)n[nH]c1/N=C/c1ccc[nH]1 [Compound B17] | B (no greater than 50% but at least 20% inhibition of the RC kinase activity at 1 μM) |  |
|  | NC(=O)c1c(Nc2ccc(Cl)cc2)n[nH]c1/N=C/c1ccc(C(F)(F)F)cc1 [Compound B28] | D (no greater than 5% inhibition of the RC kinase activity at 1 μM) |  |
|  | NC(=O)c1c(Nc2cccc(Cl)c2)n[nH]c1/N=C/c1cc(F)cc2c1OCOC2 [Compound B29] | D (no greater than 5% inhibition of the RC kinase activity at 1 μM) |  |
|  | COc1cc(/C=N/c2[nH]nc(Nc3ccc(Cl)cc3)c2C(N)=O)ccc1O [Compound B32] | A (at least 50% inhibition of the RC kinase activity at 1 μM) |  |
| ≤ 5 | NC(=O)c1c(Nc2ccc(Cl)cc2)n[nH]c1/N=C/c1ccccc1OCC(=O)O [Compound B37] |  |  |
| ≥ 50 | NC(=O)c1c(Nc2cccc(Cl)c2)n[nH]c1/N=C/c1cc(O)ccc1O [Compound B38, 3-((3-chlorophenyl)amino)-5-((2,5-dihydroxybenzylidene)amino)-1H-pyrazole-4-carboxamide] |  |  |
| 5 to 20 | NC(=O)c1c(Nc2ccc([N+](=O)[O-])cc2)n[nH]c1/N=C/c1ccccc1 [Compound B39, (E)-5-(benzylideneamino)-3-((4-nitrophenyl)amino)-1H-pyrazole-4-carboxamide] |  |  |
| 20 to 50 | NC(=O)c1c(Nc2cccc(Cl)c2)n[nH]c1/N=C/c1ccc([N+](=O)[O-])c(O)c1 [Compound B45] |  |  |
|  | COc1cccc(O)c1/C=N/c1[nH]nc(Nc2cccc(Cl)c2)c1C(N)=O [Compound B48] | C (no greater than 20% but at least 5% inhibition of the RC kinase activity at 1 μM) |  |
|  | NC(=O)c1c(Nc2cccc(Cl)c2)n[nH]c1/N=C/c1cc([N+](=O)[O-])ccc1O [Compound B51] | C (no greater than 20% but at least 5% inhibition of the RC kinase activity at 1 μM) |  |
| 5 to 20 | COc1cc(/C=N/c2[nH]nc(Nc3cccc(Cl)c3)c2C(N)=O)ccc1OCc1cnc(Cl)s1 [Compound B55] |  |  |
|  | COc1ccc(/C=N/c2[nH]nc(Nc3cccc(Cl)c3)c2C(N)=O)c(C)c1C [Compound B57] | B (no greater than 50% but at least 20% inhibition of the RC kinase activity at 1 μM) |  |
| 20 to 50 | COc1ccc(F)cc1/C=N/c1[nH]nc(Nc2cccc(Cl)c2)c1C(N)=O [Compound B58] |  |  |
| ≤ 5 | NC(=O)c1c(Nc2cccc(Cl)c2)n[nH]c1/N=C/c1ccc(Cl)nc1 [Compound B59] |  |  |
